Tested on: 18900 transformants (soybean plants)
Assay: Herbicide resistance of soybean transformants with stacked ADSS Q289N gene
Assay type: in vivo
Settings: soybean transformed with 18900 (Rhodobacter CrtI + Arabidopsis ADSS Q289N)
Description: In order to test expression of stacked genes when phytoene desaturease is used as selectable marker, we constructed several vectors with Anemonia majano cyan fluorescent protein gene AmCyan and herbicide resistance (ADSS) or detoxification (cytochrome P450) genes as examples. Binary transformation vector 18340 (FIG. 7) contains Gloeobacter CrtI expression cassette linked to an AmCyan expression cassette. 18340 was derived from insertion of prCMP-AmCyan-tNOS cassette into 18239. Similarly, binary transformation vector 18341 (FIG. 8) contains Rhodobacter CrtI and AmCyan expression cassettes and was constructed by inserting the prCMP-AmCyan-tNOS cassette into 18238. 18900 (FIG. 9) is a binary vector containing Rhodobacter CrtI expression cassette linked with an Arabidopsis adenylosuccinate synthase (ADSS) Q289N mutant expression cassette under the control of prCMP promoter. 18932 (FIG. 10) is a binary vector containing Rhodobacter CrtI expression cassette and an expression cassette for rice cytochrome P450 monooxygenase gene (Genbank accession # OSJNBb0048A17.18) under the control of prCMP promoter. […]
Binary vectors 18340, […], 18900 and 18932 were transformed into soybean plants using norfurazon as selection agent. […] 18932 transformants were evaluated for their resistance against HPPD herbicide mesotrione.

**Q.** How did the “resistance of transformants to herbicidal compound” value turn out when `O=C1NC(=O)[C@]2(N1)O[C@H](CO)[C@@H](O)[C@H]2O` [hydantocidin] was run?
**A.** Its value is “resistant”.

Reference: patent US20140342913A1, “GENES PROVIDING TOLERANCE TO PDS INHIBITORS” (SYNGENTA PARTICIPATIONS AG, priority 2013, published 2014)
